Source: ChEMBL document CHEMBL3734705, “Synthesis and in vitro cytotoxicity of novel C-12 substituted-14-deoxy-andrographolide derivatives as potent anti-cancer agents” (2015)

Experiments:
[1] = Cytotoxicity against human MOLT4 cells assessed as growth level at 10 uM after 48 hrs by SRB assay; type: functional, MOLT-4
786-0 = assay: Cytotoxicity against human 786-0 cells assessed as growth level at 10 uM after 48 hrs by SRB assay; type: functional
[2] = Cytotoxicity against human IGROV1 cells assessed as growth level at 10 uM after 48 hrs by SRB assay; type: functional, IGROV-1
[3] = Cytotoxicity against human SW620 cells assessed as growth level at 10 uM after 48 hrs by SRB assay; type: functional, SW-620
[4] = Cytotoxicity against human TK10 cells assessed as growth level at 10 uM after 48 hrs by SRB assay; type: functional, TK-10
[5] = Cytotoxicity against human OVCAR8 cells assessed as growth level at 10 uM after 48 hrs by SRB assay; type: functional, OVCAR-8
[6] = Cytotoxicity against human COLO205 cells assessed as growth level at 10 uM after 48 hrs by SRB assay; type: functional, COLO 205
NCI-H226 = assay: Cytotoxicity against human NCI-H226 cells assessed as growth level at 10 uM after 48 hrs by SRB assay; type: functional
[7] = Cytotoxicity against human Hs578T cells assessed as growth level at 10 uM after 48 hrs by SRB assay; type: functional, Hs-578T
[8] = Cytotoxicity against human HOP62 cells assessed as growth level at 10 uM after 48 hrs by SRB assay; type: functional, HOP-62
NCI-H23 = assay: Cytotoxicity against human NCI-H23 cells assessed as growth level at 10 uM after 48 hrs by SRB assay; type: functional
A498 = assay: Cytotoxicity against human A498 cells assessed as growth level at 10 uM after 48 hrs by SRB assay; type: functional
[9] = Cytotoxicity against human OVCAR5 cells assessed as growth level at 10 uM after 48 hrs by SRB assay; type: functional, OVCAR-5
CCRF-CEM = assay: Cytotoxicity against human CCRF-CEM cells assessed as growth level at 10 uM after 48 hrs by SRB assay; type: functional
[10] = Cytotoxicity against human OVCAR3 cells assessed as growth level at 10 uM after 48 hrs by SRB assay; type: functional, OVCAR-3
[11] = Cytotoxicity against human UACC257 cells assessed as growth level at 10 uM after 48 hrs by SRB assay; type: functional, UACC-257
K562 = assay: Cytotoxicity against human K562 cells assessed as growth level at 10 uM after 48 hrs by SRB assay; type: functional
SK-MEL-5 [12] = assay: Cytotoxicity against human SK-MEL-5 cells assessed as growth level at 10 uM after 48 hrs by SRB assay; type: functional
[13] = Cytotoxicity against human PC3 cells assessed as growth level at 10 uM after 48 hrs by SRB assay; type: functional, PC-3
KM12 = assay: Cytotoxicity against human KM12 cells assessed as growth level at 10 uM after 48 hrs by SRB assay; type: functional
[14] = Cytotoxicity against human UO31 cells assessed as growth level at 10 uM after 48 hrs by SRB assay; type: functional, UO-31
MDA-MB-231 = assay: Cytotoxicity against human MDA-MB-231 cells assessed as growth level at 10 uM after 48 hrs by SRB assay; type: functional
SN12C = assay: Cytotoxicity against human SN12C cells assessed as growth level at 10 uM after 48 hrs by SRB assay; type: functional
ACHN = assay: Cytotoxicity against human ACHN cells assessed as growth level at 10 uM after 48 hrs by SRB assay; type: functional
NCI-H460 [15] = assay: Cytotoxicity against human NCI-H460 cells assessed as growth level at 10 uM after 48 hrs by SRB assay; type: functional
U-251 = assay: Cytotoxicity against human U251 cells assessed as growth inhibition at 10 uM after 48 hrs by SRB assay; type: functional; conditions: U-251, 48 h, read-out: GI
[16] = Cytotoxicity against human COLO205 cells assessed as growth inhibition at 10 uM after 48 hrs by SRB assay; type: functional; conditions: COLO 205, 48 h, read-out: GI
A549 = assay: Cytotoxicity against human A549 cells assessed as growth inhibition at 10 uM after 48 hrs by SRB assay; type: functional; conditions: A549, 48 h, read-out: GI
[17] = Cytotoxicity against human SNB75 cells assessed as growth inhibition at 10 uM after 48 hrs by SRB assay; type: functional; conditions: SNB-75, 48 h, read-out: GI
[18] = Cytotoxicity against human TK10 cells assessed as growth inhibition at 10 uM after 48 hrs by SRB assay; type: functional; conditions: TK-10, 48 h, read-out: GI
MCF7 = assay: Cytotoxicity against human MCF7 cells assessed as growth inhibition at 10 uM after 48 hrs by SRB assay; type: functional; conditions: MCF7, 48 h, read-out: GI
NCI-H522 = assay: Cytotoxicity against human NCI-H522 cells assessed as growth inhibition at 10 uM after 48 hrs by SRB assay; type: functional; conditions: NCI-H522, 48 h, read-out: GI
Malme-3M = assay: Cytotoxicity against human MALME-3M cells assessed as growth inhibition at 10 uM after 48 hrs by SRB assay; type: functional; conditions: read-out: GI
SR = assay: Cytotoxicity against human SR cells assessed as growth inhibition at 10 uM after 48 hrs by SRB assay; type: functional; conditions: read-out: GI
SK-MEL-5 [19] = assay: Cytotoxicity against human SK-MEL-5 cells assessed as growth inhibition at 10 uM after 48 hrs by SRB assay; type: functional; conditions: SK-MEL-5, 48 h, read-out: GI
NCI-H460 [20] = assay: Cytotoxicity against human NCI-H460 cells assessed as growth inhibition at 10 uM after 48 hrs by SRB assay; type: functional; conditions: NCI-H460, 48 h, read-out: GI
[21] = Cytotoxicity against human OVCAR4 cells assessed as growth inhibition at 10 uM after 48 hrs by SRB assay; type: functional; conditions: OVCAR-4, 48 h, read-out: GI
[22] = Cytotoxicity against human SW620 cells assessed as growth inhibition at 10 uM after 48 hrs by SRB assay; type: functional; conditions: SW-620, 48 h, read-out: GI
[23] = Cytotoxicity against human OVCAR8 cells assessed as growth inhibition at 10 uM after 48 hrs by SRB assay; type: functional; conditions: OVCAR-8, 48 h, read-out: GI
[24] = Cytotoxicity against human MOLT4 cells assessed as growth inhibition at 10 uM after 48 hrs by SRB assay; type: functional; conditions: MOLT-4, 48 h, read-out: GI
M14 = assay: Cytotoxicity against human M14 cells assessed as growth inhibition at 10 uM after 48 hrs by SRB assay; type: functional; conditions: M14, 48 h, read-out: GI

## C=C1CC[C@@H]2[C@](C)(COC(C)=O)[C@H](OC(C)=O)CC[C@@]2(C)[C@@H]1CC(Nc1ccc(S(=O)(=O)NC(C)=O)cc1)C1=CCOC1=O (mixture of isomers)
[1]
  Activity: 0.12%
786-0
  Activity: -66.04%
[2]
  Activity: -10.04%
[3]
  Activity: -65.65%
[4]
  Activity: 2.78%
[5]
  Activity: -18.21%
[6]
  Activity: -32.73%
NCI-H226
  Activity: -52.34%
[7]
  Activity: 32.45%
[8]
  Activity: 81.97%
NCI-H23
  Activity: 7.36%
A498
  Activity: 73.42%
[9]
  Activity: -40.14%
CCRF-CEM
  Activity: -27.89%
[10]
  Activity: -87.71%
[11]
  Activity: -10.57%
K562
  Activity: 4.81%
SK-MEL-5 [12]
  Activity: 7.36%
[13]
  Activity: 0.69%
KM12
  Activity: -34%
[14]
  Activity: -58.46%
MDA-MB-231
  Activity: -38.71%
SN12C
  Activity: 1.94%
ACHN
  Activity: -63.23%
NCI-H460 [15]
  Activity: 5.29%

## C=C1CC[C@@H]2[C@](C)(COC(C)=O)[C@H](OC(C)=O)CC[C@@]2(C)[C@@H]1CC(Sc1ccccc1)C1=CCOC1=O (mixture of isomers)
[1]
  Activity: -3.93%
786-0
  Activity: -31.19%
[2]
  Activity: 25.2%
[3]
  Activity: 0.83%
[4]
  Activity: 11.37%
[5]
  Activity: 11.88%
[6]
  Activity: -68.06%
NCI-H226
  Activity: -9.88%
[7]
  Activity: 54.23%
[8]
  Activity: -18.21%
NCI-H23
  Activity: 24.46%
A498
  Activity: 86.34%
[9]
  Activity: 39.82%
CCRF-CEM
  Activity: -5.24%
[10]
  Activity: -84.17%
[11]
  Activity: 29.37%
K562
  Activity: 3.95%
SK-MEL-5 [12]
  Activity: 13.51%
[13]
  Activity: 36.43%
KM12
  Activity: 18.58%
[14]
  Activity: 35.65%
MDA-MB-231
  Activity: 7.4%
SN12C
  Activity: 1.3%
ACHN
  Activity: -13.74%
NCI-H460 [15]
  Activity: 21.71%

## C=C1CC[C@@H]2[C@](C)(CO)[C@H](O)CC[C@@]2(C)[C@@H]1C/C=C1/C(=O)OC[C@H]1O [ANDROGRAPHOLIDE]
[1]
  Activity: 98.11%
U-251
  inhibition of growth at 10 µM: 24.2%
786-0
  Activity: 84.71%
[2]
  Activity: 103.71%
[16]
  inhibition of growth at 10 µM: 5.1%
A549
  inhibition of growth at 10 µM: 12.2%
[3]
  Activity: 44.29%
[17]
  inhibition of growth at 10 µM: 38%
[18]
  inhibition of growth at 10 µM: 2.51%
MCF7
  inhibition of growth at 10 µM: 42.2%
[4]
  Activity: 97.49%
[5]
  Activity: 84.48%
[6]
  Activity: 94.9%
NCI-H226
  Activity: 91.74%
[7]
  Activity: 110.33%
NCI-H522
  inhibition of growth at 10 µM: 82.9%
Malme-3M
  inhibition of growth at 10 µM: 0.22%
SR
  inhibition of growth at 10 µM: 20.5%
[8]
  Activity: 96.27%
SK-MEL-5 [19]
  inhibition of growth at 10 µM: 22.7%
NCI-H23
  Activity: 97.89%
A498
  Activity: 87.79%
[9]
  Activity: 104.24%
CCRF-CEM
  Activity: 23.48%
[10]
  Activity: 59.17%
NCI-H460 [20]
  inhibition of growth at 10 µM: 2.02%
[21]
  inhibition of growth at 10 µM: 17.1%
[22]
  inhibition of growth at 10 µM: 55.7%
[11]
  Activity: 76.51%
K562
  Activity: 65.53%
SK-MEL-5 [12]
  Activity: 77.27%
[13]
  Activity: 93.4%
KM12
  Activity: 80.24%
[14]
  Activity: 89.6%
MDA-MB-231
  Activity: 106.75%
SN12C
  Activity: 81.73%
[23]
  inhibition of growth at 10 µM: 15.5%
ACHN
  Activity: 89.75%
[24]
  inhibition of growth at 10 µM: 1.89%
M14
  inhibition of growth at 10 µM: 15.1%
NCI-H460 [15]
  Activity: 97.98%
